# From BindingDB's records for doi:10.1021/acs.jmedchem.1c00408 (Virginia Commonwealth University, 2021)
# Columns and labels:
# [1] = Inhibition of MOR-mediated HIV1 BaL01 infection in GFP-tagged human OPRM1 transfected TZM-bl cells co-expressing HIV1 - LTR assessed as inhibition of viral entry in presence of morphine by measuring LTR-driven luciferase activity pretreated for 1 hr before infection measured after 2 to 3 days of infection
# [2] = Inhibition of MOR-mediated HIV1 BaL01 infection in GFP-tagged human OPRM1 transfected TZM-bl cells co-expressing HIV1 - LTR assessed as inhibition of viral entry by measuring LTR-driven luciferase activity pretreated for 1 hr before infection measured after 2 to 3 days of infection
# [3] = Inhibition of CCR5-mediated HIV-1 Bal entry in human GHOST CCR5 cells assessed as decrease in viral reverse transcriptase activity by measuring [3H]thymidine triphosphate incorporation measured after 60 to 90 mins by scintillation counting analysis
SMILES,EC50 [1],EC50 [2],EC50 [3]
CC(C)c1nnc(CCNC(=O)COCC(=O)NCCCCCCCNC(=O)COCC(=O)N[C@@H]2CC[C@@]3(O)[C@H]4Cc5ccc(O)c6c5[C@@]3(CCN4CC3CC3)[C@H]2O6)n1C1C[C@H]2CC[C@@H](C1)N2CC[C@H](NC(=O)C1CCC(F)(F)CC1)c1ccccc1 (some centres undefined),247 nM,368 nM,93 nM
Cc1nnc(C(C)C)n1C1C[C@H]2CC[C@@H](C1)N2CC[C@H](NC(=O)C1CCC(F)(F)CC1)c1ccc(NC(=O)COCC(=O)NCCCCCCCNC(=O)COCC(=O)N[C@@H]2CC[C@@]3(O)[C@H]4Cc5ccc(O)c6c5[C@@]3(CCN4CC3CC3)[C@H]2O6)cc1 (some centres undefined),–,–,> 100000 nM
